The test system of assay [1] is Staphylococcus aureus subsp. aureus MW2. The assay is described as follows: Selectivity ratio for inhibition of human Methionyl-tRNA synthetase to that of Staphylococcus aureus Methionyl-tRNA synthetase.
Assay [2] addresses T1, Methionine--tRNA ligase, cytoplasmic (Homo sapiens, UniProt P56192).
T1 sequence (P56192 whole entry): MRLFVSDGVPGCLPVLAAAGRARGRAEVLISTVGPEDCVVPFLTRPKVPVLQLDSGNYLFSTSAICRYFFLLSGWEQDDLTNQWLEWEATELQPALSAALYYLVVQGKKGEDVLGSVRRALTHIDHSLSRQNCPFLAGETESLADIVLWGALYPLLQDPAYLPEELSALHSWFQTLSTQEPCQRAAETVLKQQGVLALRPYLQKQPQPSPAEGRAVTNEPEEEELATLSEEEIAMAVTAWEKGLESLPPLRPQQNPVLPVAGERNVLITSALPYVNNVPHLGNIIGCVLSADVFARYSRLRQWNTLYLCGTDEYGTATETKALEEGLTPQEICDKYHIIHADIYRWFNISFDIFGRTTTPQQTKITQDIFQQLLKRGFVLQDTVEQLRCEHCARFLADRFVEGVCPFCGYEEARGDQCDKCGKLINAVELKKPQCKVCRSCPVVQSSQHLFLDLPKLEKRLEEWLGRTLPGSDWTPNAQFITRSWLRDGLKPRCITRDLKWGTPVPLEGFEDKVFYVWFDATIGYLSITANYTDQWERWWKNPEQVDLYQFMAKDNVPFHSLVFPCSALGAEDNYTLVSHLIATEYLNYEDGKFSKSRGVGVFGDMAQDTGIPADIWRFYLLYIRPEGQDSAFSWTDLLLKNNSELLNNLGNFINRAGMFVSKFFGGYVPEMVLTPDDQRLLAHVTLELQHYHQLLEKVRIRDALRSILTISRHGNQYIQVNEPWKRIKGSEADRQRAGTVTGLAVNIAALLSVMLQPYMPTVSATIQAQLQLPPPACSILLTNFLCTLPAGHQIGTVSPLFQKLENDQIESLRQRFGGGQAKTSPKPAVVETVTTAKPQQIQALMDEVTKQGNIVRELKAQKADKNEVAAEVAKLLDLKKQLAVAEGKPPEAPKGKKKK
Kind of assay: Inhibitory activity against human methionyl-tRNA synthetase (hMetRS).

Broadly, the IC50 is the midpoint of a concentration-inhibition curve. On to `O=C(O)c1cc(-c2ccc(-c3ccc(Cl)cc3Cl)cc2)n(-c2cccnc2)n1`, for which the Ratio in assay [1] is 157. Also, the half-inhibitory concentration (IC50) in assay [2] was determined as 47 µM.
In the same order, the values of `O=C(O)c1cc(-c2ccc(-c3ccc(Cl)cc3Cl)cc2)n(Cc2ccncc2)n1` are 52 and 26.2 µM.
Consider `Clc1ccc(-c2ccc(-c3cc(-c4nnn[nH]4)nn3-c3cccnc3)cc2)c(Cl)c1`, for which the Ratio in assay [1] turned out to be 82. Besides, the concentration for half-maximal inhibition (IC50) in assay [2] is 10.6 µM.
Consider `O=C(O)c1cccc(-c2ccc(-c3cc(C(=O)O)nn3-c3ccc(Cl)cc3Cl)cc2)c1`, for which the Ratio in assay [1] was 1. In assay [2], this molecule returned an IC50 of 40.9 µM.
For the molecule `O=C(O)c1cc(-c2ccc(-c3ccc(Cl)cc3Cl)cc2)n(Cc2cccnc2)n1`, the Ratio in assay [1] was above 152. Also, the IC50 in assay [2] is above 100 µM.
With `CCn1nc(C(=O)O)cc1-c1ccc(-c2ccc(Cl)cc2Cl)cc1`, the Ratio in assay [1] worked out at 45. In assay [2], this molecule registered an IC50 of 46.4 µM.
On to `O=C(O)Cn1nc(C(=O)O)cc1-c1ccc(-c2ccc(Cl)cc2Cl)cc1`, for which the Ratio in assay [1] was 29. In assay [2], the half-maximal inhibitory concentration (IC50) is 100 µM.
In the same order, the values of `COc1ccc(-n2nc(C(=O)O)cc2-c2ccc(-c3ccc(Cl)cc3Cl)cc2)cc1` are above 10 and above 100 µM.
Consider `O=C(O)c1cc(-c2ccc(-c3ccc(F)c(Cl)c3)cc2)n(-c2ccc(Cl)cc2Cl)n1`, for which the Ratio in assay [1] turned out to be 1. Also, inhibition in assay [2] was half-maximal at 20.9 µM (IC50).
In the same order, the values of `O=C(O)c1cc(-c2ccc(-c3ccc(Cl)cc3Cl)cc2)n(CCO)n1` are above 22 and above 100 µM.
With `O=C(NCc1nn[nH]n1)c1cc(-c2ccc(-c3ccc(Cl)cc3Cl)cc2)n(-c2cccnc2)n1`, the Ratio in assay [1] came out at 106. In assay [2], this molecule showed an IC50 of 13.8 µM.
Take `O=C(O)c1cc(-c2ccc(-c3ccc(Cl)cc3Cl)cc2)n(-c2ccc(Cl)cc2Cl)n1`: the Ratio in assay [1] came out at 2. For the same molecule, in assay [2], half-maximal inhibition (IC50) required 11.9 µM.
In the case of `O=C(O)c1cc(-c2ccc(-c3ccc(Cl)cc3Cl)cc2)n(-c2ccccn2)n1`, the Ratio in assay [1] is above 159. The molecule further gave a half-inhibitory concentration (IC50) in assay [2] above 100 µM.
With `O=C(O)c1cc(-c2ccc(-c3ccc(C(F)(F)F)cc3)cc2)n(-c2ccc(Cl)cc2Cl)n1`, in assay [1], the Ratio worked out at 1. This molecule also showed a half-inhibitory concentration (IC50) in assay [2] of 33.5 µM.
With `O=C(O)c1cc(-c2ccc(-c3ccccc3)cc2)n(-c2ccc(Cl)cc2Cl)n1`, the Ratio in assay [1] came out at 1. This molecule showed an IC50 in assay [2] of 44.3 µM.
In the case of `O=C(O)c1cc(-c2ccc(-c3ccc(Cl)cc3Cl)cc2)nn1Cc1ccccn1`, in assay [1], the Ratio was found to be 8. Further, in assay [2], the concentration for half-maximal inhibition (IC50) was 22.3 µM.
Take `NC(=O)c1cc(-c2ccc(-c3ccc(Cl)cc3Cl)cc2)n(-c2ccccn2)n1`: the Ratio in assay [1] was above 34. The IC50 in assay [2] was above 100 µM.
Turning to `O=C(O)c1cc(-c2ccc(-c3ccc(F)cc3)cc2)n(-c2ccc(Cl)cc2Cl)n1`, in assay [1], the Ratio came out at 1. In addition, the IC50 in assay [2] was found to be 41.3 µM.

The values above are taken from ChEMBL document CHEMBL1136090, “Discovery of a potent and selective series of pyrazole bacterial methionyl-tRNA synthetase inhibitors” (Bioorg Med Chem Lett, 2003).
